US20200239530A1, “COMPOUNDS AND METHODS OF MODULATING PROTEIN DEGRADATION” (Vividion Therapeutics, Inc., priority 2017, published 2020)

Key:
Assay in all cases: Cysteine liganding, probe competition
Type in all cases: binding
[1] = molecular target: T1, HERC4 Probable E3 ubiquitin-protein ligase HERC4 (Homo sapiens, UniProt Q5GLZ8)
T1 construct: Cells were resuspended in cold PBS on ice and sonicated with a probe sonicator to achieve lysis; endogenous in cells
T1 sequence (Q5GLZ8 1-1057): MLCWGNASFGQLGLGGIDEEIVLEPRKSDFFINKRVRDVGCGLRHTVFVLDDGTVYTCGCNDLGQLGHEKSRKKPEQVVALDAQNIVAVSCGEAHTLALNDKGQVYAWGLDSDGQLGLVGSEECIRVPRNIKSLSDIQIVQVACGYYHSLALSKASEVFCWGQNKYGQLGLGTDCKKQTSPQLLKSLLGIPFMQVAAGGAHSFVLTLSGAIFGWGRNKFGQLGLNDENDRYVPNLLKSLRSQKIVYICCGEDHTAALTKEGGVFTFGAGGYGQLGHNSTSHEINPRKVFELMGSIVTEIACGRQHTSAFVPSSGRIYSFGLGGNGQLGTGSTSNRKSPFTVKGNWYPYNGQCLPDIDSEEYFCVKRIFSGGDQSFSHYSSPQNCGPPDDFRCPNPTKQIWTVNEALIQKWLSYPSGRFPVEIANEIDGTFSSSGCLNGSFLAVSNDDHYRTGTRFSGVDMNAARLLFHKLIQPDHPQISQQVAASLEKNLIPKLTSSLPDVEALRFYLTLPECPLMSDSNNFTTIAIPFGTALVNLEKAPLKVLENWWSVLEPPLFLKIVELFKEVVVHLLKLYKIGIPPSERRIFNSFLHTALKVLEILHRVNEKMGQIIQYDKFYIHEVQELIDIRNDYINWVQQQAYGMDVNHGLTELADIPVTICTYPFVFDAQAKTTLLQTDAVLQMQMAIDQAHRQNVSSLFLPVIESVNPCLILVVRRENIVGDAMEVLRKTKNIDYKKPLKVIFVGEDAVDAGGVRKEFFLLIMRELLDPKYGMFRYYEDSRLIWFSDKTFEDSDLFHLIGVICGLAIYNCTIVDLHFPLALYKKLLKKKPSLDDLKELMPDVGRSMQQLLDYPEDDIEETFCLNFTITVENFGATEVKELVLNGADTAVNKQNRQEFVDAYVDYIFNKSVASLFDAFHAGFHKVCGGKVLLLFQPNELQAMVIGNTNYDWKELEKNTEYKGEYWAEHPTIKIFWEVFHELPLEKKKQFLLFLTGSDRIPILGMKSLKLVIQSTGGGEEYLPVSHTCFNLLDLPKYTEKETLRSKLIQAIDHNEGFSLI
Outline: (§1)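 Lysates from probe-sonicated cells in PBS (5 mg/ml proteome) were exposed to compound for 1 hr at 25° C, then labelled with desthiobiotin iodoacetamide probe (10 mM stock) for 1 hr at 25° C. Probe-tagged peptides were streptavidin-enriched after trypsin digestion.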

[2] = molecular target: T2, RNF20 E3 ubiquitin-protein ligase BRE1A (Homo sapiens, UniProt Q5VTR2)
T2 construct: Cells were resuspended in cold PBS on ice and sonicated with a probe sonicator to achieve lysis; endogenous in cells
T2 sequence (Q5VTR2 whole entry): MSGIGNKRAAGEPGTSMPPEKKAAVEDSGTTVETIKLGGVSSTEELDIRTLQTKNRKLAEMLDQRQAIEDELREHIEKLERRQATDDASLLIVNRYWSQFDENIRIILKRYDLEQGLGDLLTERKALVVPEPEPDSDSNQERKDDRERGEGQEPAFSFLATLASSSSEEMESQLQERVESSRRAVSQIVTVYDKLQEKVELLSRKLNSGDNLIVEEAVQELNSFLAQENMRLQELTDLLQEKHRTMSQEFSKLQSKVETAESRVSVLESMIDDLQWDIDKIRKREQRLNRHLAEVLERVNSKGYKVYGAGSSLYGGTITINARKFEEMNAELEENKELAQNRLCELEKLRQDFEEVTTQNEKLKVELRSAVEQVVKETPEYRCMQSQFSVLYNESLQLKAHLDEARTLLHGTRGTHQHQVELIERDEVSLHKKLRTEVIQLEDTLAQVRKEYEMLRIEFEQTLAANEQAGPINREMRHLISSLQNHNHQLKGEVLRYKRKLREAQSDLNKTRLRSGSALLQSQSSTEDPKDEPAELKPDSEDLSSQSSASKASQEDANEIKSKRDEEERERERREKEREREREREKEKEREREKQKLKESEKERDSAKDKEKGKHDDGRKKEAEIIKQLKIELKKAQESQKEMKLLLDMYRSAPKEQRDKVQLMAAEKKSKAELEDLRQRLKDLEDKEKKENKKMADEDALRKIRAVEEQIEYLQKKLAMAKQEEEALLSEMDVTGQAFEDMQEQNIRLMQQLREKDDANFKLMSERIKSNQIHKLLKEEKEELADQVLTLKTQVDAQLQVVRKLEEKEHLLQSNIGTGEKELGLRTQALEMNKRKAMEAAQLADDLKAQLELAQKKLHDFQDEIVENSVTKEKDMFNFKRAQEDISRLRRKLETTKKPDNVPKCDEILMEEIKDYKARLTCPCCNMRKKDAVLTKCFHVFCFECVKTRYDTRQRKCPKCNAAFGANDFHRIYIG
Outline: as §1

SQSTM1 Sequestosome-1 = molecular target: T3, SQSTM1 Sequestosome-1 (Homo sapiens, UniProt Q13501)
T3 construct: Cells were resuspended in cold PBS on ice and sonicated with a probe sonicator to achieve lysis; endogenous in cells
T3 sequence (Q13501 whole entry): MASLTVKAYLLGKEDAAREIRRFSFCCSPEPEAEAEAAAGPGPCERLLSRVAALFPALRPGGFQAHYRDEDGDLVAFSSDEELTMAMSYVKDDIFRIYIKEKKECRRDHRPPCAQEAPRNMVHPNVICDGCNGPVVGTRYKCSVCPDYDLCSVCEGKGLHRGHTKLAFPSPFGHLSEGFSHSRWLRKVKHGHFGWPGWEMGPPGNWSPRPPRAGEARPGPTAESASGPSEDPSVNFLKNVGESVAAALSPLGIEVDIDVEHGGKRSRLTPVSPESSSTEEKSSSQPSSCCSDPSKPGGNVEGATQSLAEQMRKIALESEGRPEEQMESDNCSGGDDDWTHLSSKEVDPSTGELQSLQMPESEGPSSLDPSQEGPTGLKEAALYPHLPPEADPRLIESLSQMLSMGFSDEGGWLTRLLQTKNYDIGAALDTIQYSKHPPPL
Outline: as §1

Row | Compound | 100 Max ([1]; uniprot Q5GLZ8) | 100 ave ([1]; uniprot Q5GLZ8) | 500 ave ([1]; uniprot Q5GLZ8) | 500 Max ([1]; uniprot Q5GLZ8, unit assumed) [%] | 100 Max ([2]; uniprot Q5VTR2) | 100 ave ([2]; uniprot Q5VTR2) | 500 Max ([2]; uniprot Q5VTR2) | 500 ave ([2]; uniprot Q5VTR2) | 100 Max (SQSTM1 Sequestosome-1; uniprot Q13501) | 100 ave (SQSTM1 Sequestosome-1; uniprot Q13501) | 500 Max (SQSTM1 Sequestosome-1; uniprot Q13501) | 500 ave (SQSTM1 Sequestosome-1; uniprot Q13501) | Liganded ([1]; HERC4 Res# 60, uniprot Q5GLZ8) | Liganded ([2]; RNF20 Res# 383, uniprot Q5VTR2) | Liganded (SQSTM1 Sequestosome-1; SQSTM1 Res# 131, uniprot Q13501)
1 | O=C(CCl)Nc1cc(C(F)(F)F)cc(C(F)(F)F)c1 [KBO3] | 42.0 | 15.4 | 58.8 | 62.3 | 11.0 | 0.6 | 37.3 | 32.6 | 11.89 | −14.15 | 56.86 | 54.29 |  |  | 
2 | COc1ccc2c(c1)CCCN2C(=O)CCl [KB02] |  |  |  |  |  |  |  |  |  |  |  |  | YES | YES | YES
